According to ChEMBL document CHEMBL1671662, “In vitro activities of telavancin and six comparator agents against anaerobic bacterial isolates” (2009):

Key:
Hoylesella oralis = test: Antibacterial activity against Prevotella oralis by CLSI M11-A6 agar dilution method in presence of beta-lactamase inhibitor Sulbactam; type: functional
Clostridium butyricum = test: Antibacterial activity against Clostridium butyricum by CLSI M11-A6 agar dilution method in presence of beta-lactamase inhibitor Sulbactam; type: functional
Finegoldia magna = test: Antibacterial activity against Finegoldia magna by CLSI M11-A6 agar dilution method in presence of beta-lactamase inhibitor Sulbactam; type: functional
Prevotella bivia = test: Antibacterial activity against Prevotella bivia by CLSI M11-A6 agar dilution method in presence of beta-lactamase inhibitor Sulbactam; type: functional
Ruminococcus lactaris = test: Antibacterial activity against Ruminococcus lactaris by CLSI M11-A6 agar dilution method in presence of beta-lactamase inhibitor Sulbactam; type: functional
Prevotella nigrescens = test: Antibacterial activity against Prevotella nigrescens by CLSI M11-A6 agar dilution method in presence of beta-lactamase inhibitor Sulbactam; type: functional
[1] = tested on: Enterocloster clostridioformis; test: Antibacterial activity against Clostridium clostridioforme by CLSI M11-A6 agar dilution method in presence of beta-lactamase inhibitor Sulbactam; type: functional
Collinsella aerofaciens = test: Antibacterial activity against Colinsella aerofaciens by CLSI M11-A6 agar dilution method in presence of beta-lactamase inhibitor Sulbactam; type: functional
Clostridium perfringens = test: Antibacterial activity against Clostridium perfringens by CLSI M11-A6 agar dilution method in presence of beta-lactamase inhibitor Sulbactam; type: functional
Clostridioides difficile = test: Antibacterial activity against Clostridium difficile by CLSI M11-A6 agar dilution method in presence of beta-lactamase inhibitor Sulbactam; type: functional
Phocaeicola vulgatus = test: Antibacterial activity against Bacteroides vulgatus by CLSI M11-A6 agar dilution method in presence of beta-lactamase inhibitor Sulbactam; type: functional
Bacteroides ovatus = test: Antibacterial activity against Bacteroides ovatus by CLSI M11-A6 agar dilution method in presence of beta-lactamase inhibitor Sulbactam; type: functional
Bacteroides fragilis = test: Antibacterial activity against Bacteroides fragilis by CLSI M11-A6 agar dilution method in presence of beta-lactamase inhibitor Sulbactam; type: functional
Coriobacterium = test: Antibacterial activity against […] by CLSI M11-A6 agar dilution method in presence of beta-lactamase inhibitor Sulbactam; type: functional
Bifidobacterium breve = test: Antibacterial activity against Bifidobacterium breve by CLSI M11-A6 agar dilution method in presence of beta-lactamase inhibitor Sulbactam; type: functional
Eggerthella lenta = test: Antibacterial activity against Eggerthella lenta by CLSI M11-A6 agar dilution method in presence of beta-lactamase inhibitor Sulbactam; type: functional
Clostridium disporicum = test: Antibacterial activity against Clostridium disporicum by CLSI M11-A6 agar dilution method in presence of beta-lactamase inhibitor Sulbactam; type: functional
Fusobacterium varium = test: Antibacterial activity against Fusobacterium varium by CLSI M11-A6 agar dilution method in presence of beta-lactamase inhibitor Sulbactam; type: functional
[2] = Antibacterial activity against Bifidobacterium infantis by CLSI M11-A6 agar dilution method in presence of beta-lactamase inhibitor Sulbactam; type: functional, Bifidobacterium longum subsp. infantis; details: Bifidobacterium longum
Clostridium hathewayi = test: Antibacterial activity against Clostridium hathewayi by CLSI M11-A6 agar dilution method in presence of beta-lactamase inhibitor Sulbactam; type: functional; details: Hungatella hathewayi
Ruminococcus gnavus = test: Antibacterial activity against Ruminococcus gnavus by CLSI M11-A6 agar dilution method in presence of beta-lactamase inhibitor Sulbactam; type: functional; details: Mediterraneibacter gnavus
[3] = tested on: Clostridium sporosphaeroides; test: Antibacterial activity against Clostridium sporosphaeroides by CLSI M11-A6 agar dilution method in presence of beta-lactamase inhibitor Sulbactam; type: functional; details: Faecalispora sporosphaeroides
Clostridium sporogenes = test: Antibacterial activity against Clostridium sporogenes by CLSI M11-A6 agar dilution method in presence of beta-lactamase inhibitor Sulbactam; type: functional
Prevotella corporis = test: Antibacterial activity against Prevotella corporis by CLSI M11-A6 agar dilution method in presence of beta-lactamase inhibitor Sulbactam; type: functional
Bifidobacterium dentium = test: Antibacterial activity against Bifidobacterium dentium by CLSI M11-A6 agar dilution method in presence of beta-lactamase inhibitor Sulbactam; type: functional
[4] = tested on: Streptococcus constellatus; test: Antibacterial activity against Streptococcus constellatus by CLSI M11-A6 agar dilution method in presence of beta-lactamase inhibitor Sulbactam; type: functional
Prevotella disiens = test: Antibacterial activity against Prevotella disiens by CLSI M11-A6 agar dilution method in presence of beta-lactamase inhibitor Sulbactam; type: functional
Clostridium leptum = test: Antibacterial activity against Clostridium leptum by CLSI M11-A6 agar dilution method in presence of beta-lactamase inhibitor Sulbactam; type: functional
Anaerococcus prevotii = test: Antibacterial activity against Anaerococcus prevotii by CLSI M11-A6 agar dilution method in presence of beta-lactamase inhibitor Sulbactam; type: functional
Clostridium tertium = test: Antibacterial activity against Clostridium tertium by CLSI M11-A6 agar dilution method in presence of beta-lactamase inhibitor Sulbactam; type: functional
Bifidobacterium longum = test: Antibacterial activity against Bifidobacterium longum by CLSI M11-A6 agar dilution method in presence of beta-lactamase inhibitor Sulbactam; type: functional
[5] = tested on: Ruminococcus flavefaciens; test: Antibacterial activity against Ruminococcus flavefaciens by CLSI M11-A6 agar dilution method in presence of beta-lactamase inhibitor Sulbactam; type: functional
Bifidobacterium bifidum = test: Antibacterial activity against Bifidobacterium bifidum by CLSI M11-A6 agar dilution method in presence of beta-lactamase inhibitor Sulbactam; type: functional
Parabacteroides merdae = test: Antibacterial activity against Parabacteroides merdae by CLSI M11-A6 agar dilution method in presence of beta-lactamase inhibitor Sulbactam; type: functional
Thomasclavelia ramosa = test: Antibacterial activity against Clostridium ramosum by CLSI M11-A6 agar dilution method in presence of beta-lactamase inhibitor Sulbactam; type: functional

CC1(C)S[C@@H]2[C@H](NC(=O)[C@H](N)c3ccccc3)C(=O)N2[C@H]1C(=O)O [AMPICILLIN]
4 µg/mL: MIC90 (Clostridioides difficile) | MIC90 (Bacteroides ovatus)
0.25 µg/mL: MIC50 (Clostridium butyricum) | MIC50 (Finegoldia magna) | MIC50 (Collinsella aerofaciens) | MIC50 (Coriobacterium) | MIC50 (Bifidobacterium breve) | MIC50 (Eggerthella lenta) | MIC50 (Clostridium disporicum) | MIC50 [2] | MIC50 [3] | MIC50 (Clostridium sporogenes) | MIC50 (Bifidobacterium dentium) | MIC50 (Clostridium leptum) | MIC50 (Anaerococcus prevotii) | MIC50 (Clostridium tertium) | MIC50 (Bifidobacterium longum) | MIC50 (Bifidobacterium bifidum)
32 µg/mL: MIC90 (Parabacteroides merdae)
0.5 µg/mL: MIC90 (Finegoldia magna) | MIC50 [4] | MIC90 [4] | MIC90 (Anaerococcus prevotii) | MIC90 (Thomasclavelia ramosa)
8 µg/mL: MIC50 (Phocaeicola vulgatus) | MIC90 (Bacteroides fragilis) | MIC50 (Parabacteroides merdae)
2 µg/mL: MIC90 (Hoylesella oralis) | MIC90 (Prevotella bivia) | MIC90 (Prevotella nigrescens) | MIC50 [1] | MIC (Clostridioides difficile) | MIC50 (Clostridioides difficile) | MIC50 (Bacteroides ovatus) | MIC50 (Fusobacterium varium) | MIC50 (Clostridium hathewayi) | MIC90 (Clostridium hathewayi) | MIC90 (Prevotella corporis) | MIC90 (Prevotella disiens)
≤ 0.12 µg/mL: MIC50 (Hoylesella oralis) | MIC50 (Prevotella bivia) | MIC50 (Ruminococcus lactaris) | MIC50 (Prevotella nigrescens) | MIC (Clostridium perfringens) | MIC50 (Clostridium perfringens) | MIC90 (Clostridium perfringens) | MIC50 (Ruminococcus gnavus) | MIC50 (Prevotella corporis) | MIC50 (Prevotella disiens) | MIC50 [5] | MIC50 (Thomasclavelia ramosa)
16 µg/mL: MIC90 [1] | MIC90 (Phocaeicola vulgatus) | MIC90 (Fusobacterium varium)
1 µg/mL: MIC90 (Clostridium butyricum) | MIC90 (Ruminococcus lactaris) | MIC90 (Collinsella aerofaciens) | MIC50 (Bacteroides fragilis) | MIC90 (Coriobacterium) | MIC90 (Bifidobacterium breve) | MIC90 (Eggerthella lenta) | MIC90 (Clostridium disporicum) | MIC90 [2] | MIC90 (Ruminococcus gnavus) | MIC90 [3] | MIC90 (Clostridium sporogenes) | MIC90 (Bifidobacterium dentium) | MIC90 (Clostridium leptum) | MIC90 (Clostridium tertium) | MIC90 (Bifidobacterium longum) | MIC90 [5] | MIC90 (Bifidobacterium bifidum)
